In brackets after ≈: the same amount, converted by molar mass.
Assays:
[1] = system: Staphylococcus aureus; assay: Antibacterial activity against methicillin-sensitive Staphylococcus aureus ATCC 29213 clinical isolate assessed as bacterial growth inhibition incubated for 16 to 18 hrs by CLSI based susceptibility testing method; type: functional; conditions: time 16-18 hrs
[2] = system: Staphylococcus aureus; assay: Antibacterial activity against methicillin-resistant Staphylococcus aureus NR 100 clinical isolate assessed as bacterial growth inhibition incubated for 16 to 18 hrs by CLSI based susceptibility testing method; type: functional; conditions: time 16-18 hrs
[3] = system: Staphylococcus aureus; assay: Antibacterial activity against methicillin-resistant Staphylococcus aureus NR 119 clinical isolate assessed as bacterial growth inhibition incubated for 16 to 18 hrs by CLSI based susceptibility testing method; type: functional; conditions: time 16-18 hrs
[4] = system: Staphylococcus aureus; assay: Antibacterial activity against methicillin-resistant Staphylococcus aureus NR 129 clinical isolate assessed as bacterial growth inhibition incubated for 16 to 18 hrs by CLSI based susceptibility testing method; type: functional; conditions: time 16-18 hrs
[5] = system: Staphylococcus aureus; assay: Antibacterial activity against methicillin-resistant Staphylococcus aureus NR 186 clinical isolate assessed as bacterial growth inhibition incubated for 16 to 18 hrs by CLSI based susceptibility testing method; type: functional; conditions: time 16-18 hrs
[6] = system: Staphylococcus aureus; assay: Antibacterial activity against methicillin-resistant Staphylococcus aureus NR 191 clinical isolate assessed as bacterial growth inhibition incubated for 16 to 18 hrs by CLSI based susceptibility testing method; type: functional; conditions: time 16-18 hrs
[7] = system: Staphylococcus aureus; assay: Antibacterial activity against methicillin-resistant Staphylococcus aureus NR 192 clinical isolate assessed as bacterial growth inhibition incubated for 16 to 18 hrs by CLSI based susceptibility testing method; type: functional; conditions: time 16-18 hrs
[8] = system: Staphylococcus aureus; assay: Antibacterial activity against methicillin-resistant Staphylococcus aureus NR 193 clinical isolate assessed as bacterial growth inhibition incubated for 16 to 18 hrs by CLSI based susceptibility testing method; type: functional; conditions: time 16-18 hrs
[9] = system: Staphylococcus aureus; assay: Antibacterial activity against methicillin-resistant Staphylococcus aureus NR 194 clinical isolate assessed as bacterial growth inhibition incubated for 16 to 18 hrs by CLSI based susceptibility testing method; type: functional; conditions: time 16-18 hrs
[10] = system: Staphylococcus aureus; assay: Antibacterial activity against methicillin-resistant Staphylococcus aureus NR 198 clinical isolate assessed as bacterial growth inhibition incubated for 16 to 18 hrs by CLSI based susceptibility testing method; type: functional; conditions: time 16-18 hrs
[11] = system: Staphylococcus aureus; assay: Antibacterial activity against vancomycin-resistant Staphylococcus aureus VRS 1 clinical isolate assessed as bacterial growth inhibition incubated for 16 to 18 hrs by CLSI based susceptibility testing method; type: functional; conditions: time 16-18 hrs
[12] = system: Staphylococcus aureus; assay: Antibacterial activity against vancomycin-resistant Staphylococcus aureus VRS 4 clinical isolate assessed as bacterial growth inhibition incubated for 16 to 18 hrs by CLSI based susceptibility testing method; type: functional; conditions: time 16-18 hrs
[13] = system: Staphylococcus aureus; assay: Antibacterial activity against vancomycin-resistant Staphylococcus aureus VRS 12 clinical isolate assessed as bacterial growth inhibition incubated for 16 to 18 hrs by CLSI based susceptibility testing method; type: functional; conditions: time 16-18 hrs
[14] = system: Staphylococcus aureus; assay: Antibacterial activity against Staphylococcus aureus ATCC 29213 assessed as bacterial growth inhibition incubated for 16 to 18 hrs by CLSI based susceptibility testing method; type: functional; conditions: time 16-18 hrs
[15] = system: Klebsiella pneumoniae; assay: Antibacterial activity against Klebsiella pneumoniae BAA 1705 assessed as bacterial growth inhibition incubated for 16 to 18 hrs by CLSI based susceptibility testing method; type: functional; conditions: time 16-18 hrs
[16] = system: Staphylococcus aureus; assay: Antibiofilm activity against Staphylococcus aureus ATCC 29213 assessed as reduction in biofilm formation at 10 times MIC incubated for 24 hrs by absorbance based assay relative to control; type: functional; set-up: scale not given: the % may be the effect or the level left
[17] = system: Escherichia coli; assay: Antibacterial activity against Escherichia coli ATCC 25922 assessed as bacterial growth inhibition incubated for 16 to 18 hrs by CLSI based susceptibility testing method; type: functional; conditions: time 16-18 hrs
[18] = system: Acinetobacter baumannii; assay: Antibacterial activity against Acinetobacter baumannii BAA 1605 assessed as bacterial growth inhibition incubated for 16 to 18 hrs by CLSI based susceptibility testing method; type: functional; conditions: time 16-18 hrs
[19] = system: Pseudomonas aeruginosa; assay: Antibacterial activity against Pseudomonas aeruginosa ATCC 27853 assessed as bacterial growth inhibition incubated for 16 to 18 hrs by CLSI based susceptibility testing method; type: functional; conditions: time 16-18 hrs
[20] = system: Mycobacterium tuberculosis; assay: Antimycobacterial activity against Mycobacterium tuberculosis H37Rv ATCC 27294 assessed as bacterial growth inhibition incubated for 7 days by resazurin dye based assay; type: functional; conditions: H37Rv ATCC 27294, 168 h, time 7 day
[21] = system: Mycobacteroides abscessus; assay: Antimycobacterial activity against Mycobacterium abscessus ATCC 19977 assessed as bacterial growth inhibition incubated for 7 days by resazurin dye based assay; type: functional; conditions: ATCC 19977, 168 h, time 7 day
[22] = system: Mycolicibacterium fortuitum; assay: Antimycobacterial activity against Mycobacterium fortuitum ATCC 6841 assessed as bacterial growth inhibition incubated for 7 days by resazurin dye based assay; type: functional; conditions: ATCC 6841, 168 h, time 7 day
[23] = system: Mycobacteroides chelonae; assay: Antimycobacterial activity against Mycobacteroides chelonae ATCC 35752 assessed as bacterial growth inhibition incubated for 7 days by resazurin dye based assay; type: functional; conditions: ATCC 35752, 168 h, time 7 day
[24] = Cytotoxicity against African green monkey Vero cells assessed as reduction in cell viability incubated for 72 hrs by MTT assay; type: toxicity, cell-based; conditions: chlorocebus sabaeus
[25] = Selectivity index, ratio of CC50 for African green monkey Vero cells to IC50 for Staphylococcus aureus ATCC 29213; type: toxicity; conditions: read-out: Selectivity Index
[26] = Selectivity index, ratio of CC50 for African green monkey Vero cells to IC50 for Mycobacterium tuberculosis H37Rv ATCC 27294; type: toxicity; conditions: read-out: Selectivity Index

Row | SMILES | MIC [1] | MIC [2] | MIC [3] | MIC [4] | MIC [5] | MIC [6] | MIC [7] | MIC [8] | MIC [11] | MIC [12] | MIC [13] | MIC [14] | MIC [15] | MIC [17] | MIC [18] | MIC [19] | MIC [20] | MIC [21] | MIC [22] | MIC [23] | also measured
1 | COc1cccc(OC)c1C(=O)N[C@@H]1C(=O)N2[C@@H]1SC(C)(C)[C@@H]2C(=O)O [METHICILLIN] | 1 µg/mL (≈ 2.63 µM) | > 64 µg/mL | > 64 µg/mL | 32 µg/mL (≈ 84.1 µM) | 64 µg/mL (≈ 168 µM) | > 64 µg/mL | > 64 µg/mL | > 64 µg/mL | > 64 µg/mL | > 64 µg/mL | > 64 µg/mL |  |  |  |  |  |  |  |  |  | MIC [9]: 32 µg/mL (≈ 84.1 µM); MIC [10]: > 64 µg/mL
2 | C[C@H]1COc2c(N3CCN(C)CC3)c(F)cc3c(=O)c(C(=O)O)cn1c23 [LEVOFLOXACIN ANHYDROUS] | 0.25 µg/mL (≈ 0.692 µM) | 0.25 µg/mL (≈ 0.692 µM) | 16 µg/mL (≈ 44.3 µM) | 0.25 µg/mL (≈ 0.692 µM) | 4 µg/mL (≈ 11.1 µM) | 16 µg/mL (≈ 44.3 µM) | 8 µg/mL (≈ 22.1 µM) | 32 µg/mL (≈ 88.6 µM) | 32 µg/mL (≈ 88.6 µM) | > 64 µg/mL | 32 µg/mL (≈ 88.6 µM) | 0.25 µg/mL (≈ 0.692 µM) | 64 µg/mL (≈ 177 µM) |  |  |  |  |  |  |  | MIC [9]: 0.125 µg/mL (≈ 0.346 µM); MIC [10]: 32 µg/mL (≈ 88.6 µM); Activity [16]: 10%
3 | C[C@@H](O)[C@H]1C(=O)N2C(C(=O)O)=C(S[C@@H]3CN[C@H](C(=O)N(C)C)C3)[C@H](C)[C@H]12 [MEROPENEM] | 0.125 µg/mL (≈ 0.326 µM) | 32 µg/mL (≈ 83.4 µM) | 64 µg/mL (≈ 167 µM) | 2 µg/mL (≈ 5.22 µM) | 4 µg/mL (≈ 10.4 µM) | 32 µg/mL (≈ 83.4 µM) | 8 µg/mL (≈ 20.9 µM) | 64 µg/mL (≈ 167 µM) | 64 µg/mL (≈ 167 µM) | 32 µg/mL (≈ 83.4 µM) | 4 µg/mL (≈ 10.4 µM) |  |  |  |  |  |  |  |  |  | MIC [9]: 1 µg/mL (≈ 2.61 µM); MIC [10]: 32 µg/mL (≈ 83.4 µM)
4 | CN[C@H](CC(C)C)C(=O)N[C@H]1C(=O)N[C@@H](CC(N)=O)C(=O)N[C@H]2C(=O)N[C@H]3C(=O)N[C@H](C(=O)N[C@H](C(=O)O)c4cc(O)cc(O)c4-c4cc3ccc4O)[C@H](O)c3ccc(c(Cl)c3)Oc3cc2cc(c3O[C@@H]2O[C@H](CO)[C@@H](O)[C@H](O)[C@H]2O[C@H]2C[C@](C)(N)[C@H](O)[C@H](C)O2)Oc2ccc(cc2Cl)[C@H]1O [VANCOMYCIN] |  |  |  |  |  |  |  |  | > 64 µg/mL | > 64 µg/mL | > 64 µg/mL |  |  |  |  |  |  |  |  |  | Activity [16]: 7.7%
5 | COc1ccccc1-n1c(C)cc(/C=C2\S/C(=N/c3nccs3)NC2=O)c1C | 0.5 µg/mL (≈ 1.22 µM) | 1 µg/mL (≈ 2.44 µM) | 2 µg/mL (≈ 4.87 µM) | 2 µg/mL (≈ 4.87 µM) | 1 µg/mL (≈ 2.44 µM) | 2 µg/mL (≈ 4.87 µM) | 2 µg/mL (≈ 4.87 µM) | 2 µg/mL (≈ 4.87 µM) | 2 µg/mL (≈ 4.87 µM) | 2 µg/mL (≈ 4.87 µM) | 2 µg/mL (≈ 4.87 µM) | 0.5 µg/mL (≈ 1.22 µM) | > 64 µg/mL | > 64 µg/mL | > 64 µg/mL | > 64 µg/mL | 2 µg/mL (≈ 4.87 µM) | > 64 µg/mL | > 64 µg/mL | > 64 µg/mL | CC50 at 72 h [24]: 40 µg/mL (≈ 97.4 µM); selectivity ratio [25]: 80; MIC [9]: 2 µg/mL (≈ 4.87 µM); MIC [10]: 2 µg/mL (≈ 4.87 µM); Activity [16]: >11%
6 | Cc1ccc(-n2c(C)cc(/C=C3\S/C(=N/c4nccs4)NC3=O)c2C)cc1C |  |  |  |  |  |  |  |  |  |  |  | 16 µg/mL (≈ 39.2 µM) | > 64 µg/mL | > 64 µg/mL | > 64 µg/mL | > 64 µg/mL | 0.5 µg/mL (≈ 1.22 µM) | > 64 µg/mL | > 64 µg/mL | > 64 µg/mL | CC50 at 72 h [24]: 40 µg/mL (≈ 97.9 µM); selectivity ratio [26]: 80
7 | Cc1cc(/C=C2\S/C(=N/c3nccs3)NC2=O)c(C)n1-c1ccccc1 |  |  |  |  |  |  |  |  |  |  |  | 2 µg/mL (≈ 5.26 µM) | > 64 µg/mL | > 64 µg/mL | > 64 µg/mL | > 64 µg/mL | 8 µg/mL (≈ 21 µM) | > 64 µg/mL | > 64 µg/mL | > 64 µg/mL | 
8 | Cc1cc(/C=C2\S/C(=N/c3nccs3)NC2=O)c(C)n1-c1cccc(Cl)c1 |  |  |  |  |  |  |  |  |  |  |  | 8 µg/mL (≈ 19.3 µM) | > 64 µg/mL | > 64 µg/mL | > 64 µg/mL | > 64 µg/mL | > 64 µg/mL | > 64 µg/mL | > 64 µg/mL | > 64 µg/mL | 
9 | Cc1nc(/N=C2\NC(=O)/C(=C/c3cc(C)n(-c4ccc(F)cc4)c3C)S2)sc1C |  |  |  |  |  |  |  |  |  |  |  | > 64 µg/mL | > 64 µg/mL | > 64 µg/mL | > 64 µg/mL | > 64 µg/mL | 16 µg/mL (≈ 37.5 µM) | > 64 µg/mL | > 64 µg/mL | > 64 µg/mL | 
10 | Cc1nc(/N=C2\NC(=O)/C(=C/c3cc(C)n(-c4ccc(N5CCOCC5)cc4)c3C)S2)sc1C |  |  |  |  |  |  |  |  |  |  |  | 64 µg/mL (≈ 130 µM) | > 64 µg/mL | > 64 µg/mL | > 64 µg/mL | > 64 µg/mL | > 64 µg/mL | > 64 µg/mL | > 64 µg/mL | > 64 µg/mL | 
11 | COc1cccc(-n2c(C)cc(/C=C3\S/C(=N/c4nc(C)c(C)s4)NC3=O)c2C)c1 |  |  |  |  |  |  |  |  |  |  |  | > 64 µg/mL | > 64 µg/mL | > 64 µg/mL | > 64 µg/mL | > 64 µg/mL | 2 µg/mL (≈ 4.56 µM) | > 64 µg/mL | > 64 µg/mL | > 64 µg/mL | 
12 | Cc1cc(/C=C2\S/C(=N/c3nccs3)NC2=O)c(C)n1-c1ccc([N+](=O)[O-])cc1 |  |  |  |  |  |  |  |  |  |  |  | > 64 µg/mL | > 64 µg/mL | > 64 µg/mL | > 64 µg/mL | > 64 µg/mL | > 64 µg/mL | > 64 µg/mL | > 64 µg/mL | > 64 µg/mL | 

From ChEMBL document CHEMBL5634099, “Pyrrole-thiazolidinone hybrids as a new structural class of broad-spectrum anti-infectives” (Eur J Med Chem, 2023)
